Reference: patent publication US20230159532A1, “PARATHYROID HORMONE (PTH) RECEPTOR ANTAGONISTS AND USES THEREOF” (Crinetics Pharmaceuticals, Inc., priority 2021, published 2023)

target: T1, human PTHR1 receptor (Homo sapiens, UniProt Q03431); experiment: Competitive antagonist binding assay for hPTH-R1 (radioactive competition binding, SPA beads); details: human PTHR1 membranes, [125I]-[Nle8,18,Tyr34]-PTH(1-34) 0.2 nM, 90 minutes at room temperature; read-out: hPTHR1 Ki
T1 construct: purchased Eurofins HTS030M
T1 sequence (Q03431 27-593): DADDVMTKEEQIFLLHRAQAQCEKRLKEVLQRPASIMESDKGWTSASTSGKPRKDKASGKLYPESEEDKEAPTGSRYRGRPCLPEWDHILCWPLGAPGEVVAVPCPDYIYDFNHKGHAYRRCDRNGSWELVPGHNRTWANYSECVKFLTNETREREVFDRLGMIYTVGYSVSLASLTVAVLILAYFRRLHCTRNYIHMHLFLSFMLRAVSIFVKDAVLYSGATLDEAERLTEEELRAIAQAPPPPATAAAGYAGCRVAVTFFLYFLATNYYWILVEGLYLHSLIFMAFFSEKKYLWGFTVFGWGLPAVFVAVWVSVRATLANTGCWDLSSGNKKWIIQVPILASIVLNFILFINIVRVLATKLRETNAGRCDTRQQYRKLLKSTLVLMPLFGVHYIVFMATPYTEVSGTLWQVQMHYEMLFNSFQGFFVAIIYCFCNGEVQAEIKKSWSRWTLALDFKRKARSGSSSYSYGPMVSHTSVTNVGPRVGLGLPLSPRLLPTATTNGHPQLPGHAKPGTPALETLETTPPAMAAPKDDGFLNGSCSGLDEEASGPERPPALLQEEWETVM
Experimental: Competitive Antagonist Binding Assay Protocol for hPTH-R1 Antagonists:
The inhibition of binding to the human PTHR1 receptor was measured in a radioactive competition binding assay using the radiolabeled [^125I]-[NLE^8,18, TYR^34]-parathyroid hormone (1-34) ligand (PerkinElmer Cat# NEX244, custom synthesis) as the probe ligand for the receptor. Briefly, membranes from cells expressing the human PTHR1 (Eurofins Cat# HTS030M) were incubated with SPA beads (PerkinElmer Cat# RPNQ0001) in binding assay buffer [50 mM HEPES (Biopioneer Cat# C0113), 5 mM MgCl2 (Sigma Cat# M8266), 10 mM CaCl2 (Fisher Scientific Cat# BP510), 0.1% BSA (Fisher Scientific Cat# BP1600), 0.01% TritonX-100 (Bio-Rad Cat#161-0407), and protease inhibitors (Pierce Cat# A32963); pH 7.4]. Membranes bound to SPA bead were treated with various dilutions of compounds (final concentrations typically 0-10,000 nM), and 0.2 nM radiolabeled ligand in 96-well isoplates (PerkinElmer Cat#6005040) for 90 minutes at room temperature. The radioactive signal was detected using a MicroBetaTriLux 1450 LSC (PerkinElmer). All data manipulations to determine the Ki values were performed using GraphPad v8 (GraphPad, San Diego Calif.).

| Structure (SMILES) | Ki |
| --- | --- |
| CCN1C(=O)N(c2c(F)cc(NCCNCCO)cc2F)c2cc(Cl)cc(C)c2-c2cc(Cl)cnc21 [1-51, 4,13-dichloro-10-[2,6-difluoro-4-({2-[(2-hydroxyethyl)amino]ethyl}amino)phenyl]-8-ethyl-15-methyl-6,8,10-triazatricyclo[9.4.0.0^2,7]pentadeca-1(11),2(7),3,5,12,14-hexaen-9-one] | < 100 nM |
| CCN1C(=O)N(c2c(F)cc(NCCNCCO)cc2F)c2cc(C#N)ccc2-c2cc(Cl)cnc21 [1-55, 4-chloro-10-[2,6-difluoro-4-({2-[(2-hydroxyethyl)amino]ethyl}amino)phenyl]-8-ethyl-9-oxo-6,8,10-triazatricyclo[9.4.0.0^2,7]pentadeca-1(11),2(7),3,5,12,14-hexaene-13-carbonitrile] | < 100 nM |
| CCN1C(=O)N(c2c(F)cc(NCCN[C@@H](C)C(=O)O)cc2F)c2cc(C#N)ccc2-c2cc(Cl)cnc21 [1-219, (2S)-2-({2-[(4-{4-chloro-13-cyano-8-ethyl-9-oxo-6,8,10-triazatricyclo[9.4.0.0^2,7]pentadeca-1(11),2(7),3,5,12,14-hexaen-10-yl}-3,5-difluorophenyl)amino]ethyl}amino)propanoic acid] | < 100 nM |
| CCN1C(=O)N(c2c(F)cc(NCCNCCCC(=O)O)cc2F)c2cc(Cl)cc(C)c2-c2cc(F)cnc21 [1-64, 4-({2-[(4-{13-chloro-8-ethyl-4-fluoro-15-methyl-9-oxo-6,8,10-triazatricyclo[9.4.0.0^2,7]pentadeca-1(11),2(7),3,5,12,14-hexaen-10-yl}-3,5-difluorophenyl)amino]ethyl}amino)butanoic acid] | < 100 nM |
| CCN1C(=O)N(c2c(F)cc(NCCNCCCC(=O)O)cc2F)c2cc(C(F)(F)F)ccc2-c2cc(F)cnc21 [1-69, 4-{[2-({4-[8-ethyl-4-fluoro-9-oxo-13-(trifluoromethyl)-6,8,10-triazatricyclo[9.4.0.0^2,7]pentadeca-1(11),2(7),3,5,12,14-hexaen-10-yl]-3,5-difluorophenyl}amino)ethyl]amino}butanoic acid] | < 100 nM |
| CCN1C(=O)N(c2c(F)cc(NCC(=O)O)cc2F)c2cc(Cl)ccc2-c2cc(Cl)cnc21 [1-41, 2-[(4-{4,13-dichloro-8-ethyl-9-oxo-6,8,10-triazatricyclo[9.4.0.0^2,7]pentadeca-1(11),2(7),3,5,12,14-hexaen-10-yl}-3,5-difluorophenyl)amino]acetic acid] | > 10000 nM |
| CCN1C(=O)N(c2c(F)cc(NCCNCCO)cc2F)c2cc(C#N)cc(F)c2-c2cc(Cl)cnc21 [1-100, 4-chloro-10-[2,6-difluoro-4-({2-[(2-hydroxyethyl)amino]ethyl}amino)phenyl]-8-ethyl-15-fluoro-9-oxo-6,8,10-triazatricyclo[9.4.0.0^2,7]pentadeca-1(11),2(7),3,5,12,14-hexaene-13-carbonitrile] | < 100 nM |
| CCN1C(=O)N(c2c(F)cc(NCCN[C@@H](CO)CC(=O)O)cc2F)c2cc(C#N)ccc2-c2cc(Cl)cnc21 [1-202, (3R)-3-({2-[(4-{4-chloro-13-cyano-8-ethyl-9-oxo-6,8,10-triazatricyclo[9.4.0.0^2,7]pentadeca-1(11),2(7),3,5,12,14-hexaen-10-yl}-3,5-difluorophenyl)amino]ethyl}amino)-4-hydroxybutanoic acid] | < 100 nM |
| CCN1C(=O)N(c2c(F)cc(NCCNC[C@@H](O)c3ccccc3)cc2F)c2cc(C#N)ccc2-c2cc(Cl)cnc21 [1-239, 4-chloro-10-{2,6-difluoro-4-[(2-{[(2S)-2-hydroxy-2-phenylethyl]amino}ethyl)amino]phenyl}-8-ethyl-9-oxo-6,8,10-triazatricyclo[9.4.0.0^2,7]pentadeca-1(11),2(7),3,5,12,14-hexaene-13-carbonitrile] | < 100 nM |
| CC(C)N1C(=O)N(c2c(F)cc(NCCNCCCC(=O)O)cc2F)c2cc(C#N)cc(F)c2-c2cc(F)cnc21 [1-163, 4-{[2-({4-[13-cyano-4,15-difluoro-9-oxo-8-(propan-2-yl)-6,8,10-triazatricyclo[9.4.0.0^2,7]pentadeca-1(15),2(7),3,5,11,13-hexaen-10-yl]-3,5-difluorophenyl}amino)ethyl]amino}butanoic Acid] | < 100 nM |
| CCN1C(=O)N(c2c(F)cc(NCCNC)cc2F)c2cc(Cl)ccc2-c2cc(C#N)cnc21 [1-89, 13-chloro-10-(2,6-difluoro-4-{[2-(methylamino)ethyl]amino}phenyl)-8-ethyl-9-oxo-6,8,10-triazatricyclo[9.4.0.0^2,7]pentadeca-1(11),2(7),3,5,12,14-hexaene-4-carbonitrile] | < 100 nM |
| CCN1C(=O)N(c2c(F)cc(NCCN3CCOCC3)cc2F)c2cc(C#N)ccc2-c2cc(Cl)cnc21 [1-148, 4-chloro-10-(2,6-difluoro-4-{[2-(morpholin-4-yl)ethyl]amino}phenyl)-8-ethyl-9-oxo-6,8,10-triazatricyclo[9.4.0.0^2,7]pentadeca-1(11),2(7),3,5,12,14-hexaene-13-carbonitrile] | 100 to 1000 nM |
| CCN1C(=O)N(c2c(F)cc(NCCNCCC#N)cc2F)c2cc(C#N)ccc2-c2cc(Cl)cnc21 [1-154, 4-chloro-10-[4-({2-[(2-cyanoethyl)amino]ethyl}amino)-2,6-difluorophenyl]-8-ethyl-9-oxo-6,8,10-triazatricyclo[9.4.0.0^2,7]pentadeca-1(11),2(7),3,5,12,14-hexaene-13-carbonitrile] | < 100 nM |
| CCN1C(=O)N(c2c(F)cc(NCCNCCCC(=O)O)cc2F)c2cc(Cl)ccc2-c2cc(C)cnc21 [1-25, 4-({2-[(4-{13-chloro-8-ethyl-4-methyl-9-oxo-6,8,10-triazatricyclo[9.4.0.0^2,7]pentadeca-1(11),2(7),3,5,12,14-hexaen-10-yl}-3,5-difluorophenyl)amino]ethyl}amino)butanoic acid] | < 100 nM |
| CCN1C(=O)N(c2c(F)cc(NCCNC)cc2F)c2ccccc2-c2cc(Cl)cnc21 [1-135, 4-chloro-10-(2,6-difluoro-4-{[2-(methylamino)ethyl]amino}phenyl)-8-ethyl-6,8,10-triazatricyclo[9.4.0.0^2,7]pentadeca-1(11),2(7),3,5,12,14-hexaen-9-one] | < 100 nM |
| CC(C)N1C(=O)N(c2c(F)cc(NCCNCCCC(=O)O)cc2F)c2cc(C#N)ccc2-c2cc(Cl)cnc21 [1-93, 4-{[2-({4-[4-chloro-13-cyano-9-oxo-8-(propan-2-yl)-6,8,10-triazatricyclo[9.4.0.0^2,7]pentadeca-1(11),2(7),3,5,12,14-hexaen-10-yl]-3,5-difluorophenyl}amino)ethyl]amino}butanoic acid] | < 100 nM |
| CCCN1C(=O)N(c2c(F)cc(NCCNCCO)cc2F)c2cc(C#N)cc(F)c2-c2cc(F)cnc21 [1-125, 10-[2,6-difluoro-4-({2-[(2-hydroxyethyl)amino]ethyl}amino)phenyl]-4,15-difluoro-9-oxo-8-propyl-6,8,10-triazatricyclo[9.4.0.0^2,7]pentadeca-1(11),2(7),3,5,12,14-hexaene-13-carbonitrile] | < 100 nM |
| CCN1C(=O)N(c2c(F)cc(NCCNC)cc2F)c2cc(Cl)ccc2-c2cc(C)cnc21 [1-18, 13-chloro-10-(2,6-difluoro-4-{[2-(methylamino)ethyl]amino}phenyl)-8-ethyl-4-methyl-6,8,10-triazatricyclo[9.4.0.0^2,7]pentadeca-1(11),2(7),3,5,12,14-hexaen-9-one] | < 100 nM |
| CCN1C(=O)N(c2c(F)cc(NCCNC)cc2F)c2cc(Cl)ccc2-c2cc(F)cnc21 [1-14, 13-chloro-10-(2,6-difluoro-4-{[2-(methylamino)ethyl]amino}phenyl)-8-ethyl-4-fluoro-6,8,10-triazatricyclo[9.4.0.0^2,7]pentadeca-1(11),2(7),3,5,12,14-hexaen-9-one] | < 100 nM |
| CCN1C(=O)N(c2c(F)cc(NCCNC[C@H]3CCC(=O)N3)cc2F)c2cc(C#N)ccc2-c2cc(Cl)cnc21 [1-170, 4-chloro-10-(2,6-difluoro-4-{[2-({[(2R)-5-oxopyrrolidin-2-yl]methyl}amino)ethyl]amino}phenyl)-8-ethyl-9-oxo-6,8,10-triazatricyclo[9.4.0.0^2,7]pentadeca-1(11),2(7),3,5,12,14-hexaene-13-carbonitrile] | < 100 nM |
| CCN1C(=O)N(c2c(F)cc(NCCNC)cc2F)c2cc(Cl)ccc2-c2ccc(C)nc21 [3-1, 13-chloro-10-(2,6-difluoro-4-{[2-(methylamino)ethyl]amino}phenyl)-8-ethyl-5-methyl-6,8,10-triazatricyclo[9.4.0.0^2,7]pentadeca-1(11),2(7),3,5,12,14-hexaen-9-one] | < 100 nM |
